Values of other authors, collected in patent publication US8442776B2, “Structure of compstatin-C3 complex and use for rational drug design” (The Trustees of the University of Pennsylvania, priority 2007, dated 2013).

Experiments:
[1] = system: complement system (C3 activation); details: read-out: inhibitory activity IC50

IC50 [1]: 12 µM | binding to primate C3 (primate C3): binds only to primate C3
SMILES: CC[C@H](C)[C@H](N)C(=O)N[C@H]1CSSC[C@@H](C(=O)N[C@H](C(N)=O)[C@@H](C)O)NC(=O)[C@H](CCCN=C(N)N)NC(=O)[C@H](Cc2cnc[nH]2)NC(=O)[C@H](Cc2cnc[nH]2)NC(=O)CNC(=O)[C@H](Cc2c[nH]c3ccccc23)NC(=O)[C@H](CC(=O)O)NC(=O)[C@H](CCC(N)=O)NC(=O)[C@H](C(C)C)NC(=O)[C@H](C(C)C)NC1=O [Compstatin]
